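GI50 = concentration required for 50% inhibition of growth. Definition used: TGI = concentration required for complete inhibition of growth.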
Legend:
Assay in all cases: inhibition of tumour cell growth, NCI panel, 384-well format
786-0 renal = test system: 786-0 renal
A498 renal = test system: A498 renal
A549 NSCLC = test system: A549 NSCLC
ACHN renal = test system: ACHN renal
BT-549 breast = test system: BT-549 breast
CAKI-1 renal = test system: CAKI-1 renal
CCRF-CEM leukemia = test system: CCRF-CEM leukemia
COLO 205 colon = test system: COLO 205 colon
DU-145 prostate = test system: DU-145 prostate
EKVX NSCLC = test system: EKVX NSCLC
HCC-2998 colon = test system: HCC-2998 colon
HCT-15 colon = test system: HCT-15 colon
HL-60(TB) leukemia = test system: HL-60(TB) leukemia
HOP-62 NSCLC = test system: HOP-62 NSCLC
HOP-92 NSCLC = test system: HOP-92 NSCLC
HS 578T breast = test system: HS 578T breast
HT29 colon = test system: HT29 colon
IGROV1 ovarian = test system: IGROV1 ovarian
K-562 leukemia = test system: K-562 leukemia
KM12 colon = test system: KM12 colon
LOX IMVI melanoma = test system: LOX IMVI melanoma
M14 melanoma = test system: M14 melanoma
MALME-3M melanoma = test system: MALME-3M melanoma
MCF7 breast = test system: MCF7 breast
MDA-MB-231 breast = test system: MDA-MB-231 breast
MDA-MB-435 melanoma = test system: MDA-MB-435 melanoma
MDA-MB-468 breast = test system: MDA-MB-468 breast
MOLT-4 leukemia = test system: MOLT-4 leukemia
NCI-H226 lung = test system: NCI-H226 lung
NCI-H23 lung = test system: NCI-H23 lung
NCI-H322M lung = test system: NCI-H322M lung
NCI-H460 NSCLC = test system: NCI-H460 NSCLC
NCI-H522 lung = test system: NCI-H522 lung
NCI/ADR-RES ovarian = test system: NCI/ADR-RES ovarian
OVCAR-3 ovarian = test system: OVCAR-3 ovarian
OVCAR-4 ovarian = test system: OVCAR-4 ovarian
OVCAR-5 ovarian = test system: OVCAR-5 ovarian
OVCAR-8 ovarian = test system: OVCAR-8 ovarian
PC-3 prostate = test system: PC-3 prostate
RPMI-8226 leukemia = test system: RPMI-8226 leukemia
RXF 393 renal = test system: RXF 393 renal
SF-268 CNS = test system: SF-268 CNS
SF-295 CNS = test system: SF-295 CNS
SF-539 CNS = test system: SF-539 CNS
SK-MEL-28 melanoma = test system: SK-MEL-28 melanoma
SK-MEL-5 melanoma = test system: SK-MEL-5 melanoma
SK-OV-3 ovarian = test system: SK-OV-3 ovarian
SN12C renal = test system: SN12C renal
SNB-19 CNS = test system: SNB-19 CNS
SNB-75 CNS = test system: SNB-75 CNS
SR leukemia = test system: SR leukemia
SW-620 colon = test system: SW-620 colon
T-47D breast = test system: T-47D breast
TK-10 renal = test system: TK-10 renal
U251 glioblastoma = test system: U251 glioblastoma
UACC-257 melanoma = test system: UACC-257 melanoma
UACC-62 melanoma = test system: UACC-62 melanoma
UO-31 renal = test system: UO-31 renal
HCT-116 colon = test system: HCT-116 colon
SK-MEL-2 melanoma = test system: SK-MEL-2 melanoma

## CC1(COc2ccc3c(c2)ncn3-c2ccc3cccc(N4CCC(N)CC4)c3n2)COC1
786-0 renal
  GI50: 0.808 µM
  TGI: 2.07 µM
A498 renal
  GI50: 1.67 µM
  TGI: 3.04 µM
A549 NSCLC
  GI50: 1.28 µM
  TGI: 2.63 µM
ACHN renal
  GI50: 1.15 µM
  TGI: 2.47 µM
BT-549 breast
  GI50: 0.37 µM
  TGI: 1.41 µM
CAKI-1 renal
  GI50: 1 µM
  TGI: 2.23 µM
CCRF-CEM leukemia
  GI50: 0.365 µM
  TGI: 1.4 µM
COLO 205 colon
  GI50: 0.482 µM
  TGI: 1.63 µM
DU-145 prostate
  GI50: 1.09 µM
  TGI: 2.35 µM
EKVX NSCLC
  GI50: 1.76 µM
  TGI: 3.41 µM
HCC-2998 colon
  GI50: 1.39 µM
  TGI: 2.73 µM
HCT-15 colon
  GI50: 1.45 µM
  TGI: 2.99 µM
HL-60(TB) leukemia
  GI50: 0.275 µM
  TGI: 0.901 µM
HOP-62 NSCLC
  GI50: 0.556 µM
  TGI: 1.76 µM
HOP-92 NSCLC
  GI50: 1.18 µM
  TGI: 2.47 µM
HS 578T breast
  GI50: 0.573 µM
  TGI: 1.73 µM
HT29 colon
  GI50: 1.63 µM
  TGI: 3.05 µM
IGROV1 ovarian
  GI50: 1.67 µM
  TGI: 3.08 µM
K-562 leukemia
  GI50: 0.967 µM
  TGI: 2.15 µM
KM12 colon
  GI50: 0.0395 µM
  TGI: 1.45 µM
LOX IMVI melanoma
  GI50: 0.636 µM
  TGI: 1.89 µM
M14 melanoma
  GI50: 1.5 µM
  TGI: 2.83 µM
MALME-3M melanoma
  GI50: 1.85 µM
  TGI: 3.25 µM
MCF7 breast
  GI50: 1.35 µM
  TGI: 2.65 µM
MDA-MB-231 breast
  GI50: 1.06 µM
  TGI: 2.5 µM
MDA-MB-435 melanoma
  GI50: 1.28 µM
  TGI: 2.55 µM
MDA-MB-468 breast
  GI50: 0.532 µM
  TGI: 1.6 µM
MOLT-4 leukemia
  GI50: 0.362 µM
  TGI: 1.17 µM
NCI-H226 lung
  GI50: 1.56 µM
  TGI: 2.99 µM
NCI-H23 lung
  GI50: 0.622 µM
  TGI: 1.88 µM
NCI-H322M lung
  GI50: 1.95 µM
  TGI: 3.49 µM
NCI-H460 NSCLC
  GI50: 0.479 µM
  TGI: 1.6 µM
NCI-H522 lung
  GI50: 0.441 µM
  TGI: 1.63 µM
NCI/ADR-RES ovarian
  GI50: 1.71 µM
  TGI: 3.39 µM
OVCAR-3 ovarian
  GI50: 1.56 µM
  TGI: 3.01 µM
OVCAR-4 ovarian
  GI50: 2.18 µM
  TGI: 3.64 µM
OVCAR-5 ovarian
  GI50: 1.73 µM
  TGI: 3.41 µM
OVCAR-8 ovarian
  GI50: 1.18 µM
  TGI: 2.43 µM
PC-3 prostate
  GI50: 1.69 µM
  TGI: 3.16 µM
RPMI-8226 leukemia
  GI50: 0.242 µM
  TGI: 0.708 µM
RXF 393 renal
  GI50: 1.56 µM
  TGI: 2.91 µM
SF-268 CNS
  GI50: 1.16 µM
  TGI: 2.44 µM
SF-295 CNS
  GI50: 1.58 µM
  TGI: 2.94 µM
SF-539 CNS
  GI50: 0.501 µM
  TGI: 1.93 µM
SK-MEL-28 melanoma
  GI50: 1.68 µM
  TGI: 3.05 µM
SK-MEL-5 melanoma
  GI50: 1.37 µM
  TGI: 2.66 µM
SK-OV-3 ovarian
  GI50: 1.61 µM
  TGI: 3 µM
SN12C renal
  GI50: 0.25 µM
  TGI: 1.58 µM
SNB-19 CNS
  GI50: 1.98 µM
  TGI: 4.52 µM
SNB-75 CNS
  GI50: 1.53 µM
  TGI: 2.87 µM
SR leukemia
  GI50: 0.185 µM
  TGI: 0.43 µM
SW-620 colon
  GI50: 1.1 µM
  TGI: 2.42 µM
T-47D breast
  GI50: 2.07 µM
  TGI: 3.56 µM
TK-10 renal
  GI50: 1.71 µM
  TGI: 3.68 µM
U251 glioblastoma
  GI50: 1.34 µM
  TGI: 2.7 µM
UACC-257 melanoma
  GI50: 2.71 µM
  TGI: 4.19 µM
UACC-62 melanoma
  GI50: 1.46 µM
  TGI: 2.77 µM
UO-31 renal
  GI50: 1.55 µM
  TGI: 2.95 µM

## COC[C@H]1Cn2cc(-c3nc(Nc4ccnn4C)ncc3C)nc2C(=O)N1Cc1ccc(F)c(F)c1
786-0 renal
  GI50: 24.6 µM
  TGI: > 100 µM
A498 renal
  GI50: 1.3 µM
  TGI: > 100 µM
A549 NSCLC
  GI50: 0.373 µM
  TGI: > 100 µM
BT-549 breast
  GI50: 18.6 µM
  TGI: > 100 µM
CAKI-1 renal
  GI50: 0.509 µM
  TGI: > 100 µM
CCRF-CEM leukemia
  GI50: 17.6 µM
  TGI: 37.9 µM
COLO 205 colon
  GI50: < 0.01 µM
  TGI: 0.36 µM
DU-145 prostate
  GI50: 10.4 µM
  TGI: > 100 µM
EKVX NSCLC
  GI50: 11 µM
  TGI: > 100 µM
HCC-2998 colon
  GI50: 0.0316 µM
  TGI: 0.219 µM
HCT-116 colon
  GI50: 0.0577 µM
  TGI: 32.3 µM
HCT-15 colon
  GI50: 24.8 µM
  TGI: > 100 µM
HL-60(TB) leukemia
  GI50: 0.0154 µM
  TGI: 1.55 µM
HOP-62 NSCLC
  GI50: 2.02 µM
  TGI: > 100 µM
HOP-92 NSCLC
  GI50: 0.389 µM
  TGI: 11.6 µM
HS 578T breast
  GI50: 15.8 µM
  TGI: > 100 µM
HT29 colon
  GI50: 0.0947 µM
  TGI: > 100 µM
IGROV1 ovarian
  GI50: 0.314 µM
  TGI: > 100 µM
K-562 leukemia
  GI50: 1.03 µM
  TGI: > 100 µM
KM12 colon
  GI50: 0.255 µM
  TGI: > 100 µM
LOX IMVI melanoma
  GI50: 0.0393 µM
  TGI: 0.31 µM
M14 melanoma
  GI50: 0.0106 µM
  TGI: 0.181 µM
MALME-3M melanoma
  GI50: < 0.01 µM
  TGI: 0.0237 µM
MCF7 breast
  GI50: 19.6 µM
  TGI: > 100 µM
MDA-MB-231 breast
  GI50: 0.266 µM
  TGI: > 100 µM
MDA-MB-435 melanoma
  GI50: 0.0355 µM
  TGI: > 100 µM
MDA-MB-468 breast
  GI50: 14.2 µM
  TGI: 52.2 µM
MOLT-4 leukemia
  GI50: 16.9 µM
  TGI: 46.5 µM
NCI-H226 lung
  GI50: 0.612 µM
  TGI: > 100 µM
NCI-H23 lung
  GI50: 0.0369 µM
  TGI: 2.11 µM
NCI-H322M lung
  GI50: 0.145 µM
  TGI: > 100 µM
NCI-H460 NSCLC
  GI50: 2.03 µM
  TGI: > 100 µM
NCI-H522 lung
  GI50: 1.09 µM
  TGI: > 100 µM
NCI/ADR-RES ovarian
  GI50: 93.6 µM
  TGI: > 100 µM
OVCAR-3 ovarian
  GI50: 43.5 µM
  TGI: > 100 µM
OVCAR-4 ovarian
  GI50: 61.9 µM
  TGI: > 100 µM
OVCAR-5 ovarian
  GI50: 0.217 µM
  TGI: > 100 µM
OVCAR-8 ovarian
  GI50: 71.6 µM
  TGI: > 100 µM
PC-3 prostate
  GI50: 38.4 µM
  TGI: > 100 µM
RPMI-8226 leukemia
  GI50: 0.771 µM
  TGI: 2.6 µM
RXF 393 renal
  GI50: 23.6 µM
  TGI: > 100 µM
SF-268 CNS
  GI50: 95.9 µM
  TGI: > 100 µM
SF-295 CNS
  GI50: > 100 µM
  TGI: > 100 µM
SF-539 CNS
  GI50: 18.4 µM
  TGI: > 100 µM
SK-MEL-2 melanoma
  GI50: 0.0366 µM
  TGI: 0.196 µM
SK-MEL-28 melanoma
  GI50: < 0.01 µM
  TGI: 0.108 µM
SK-MEL-5 melanoma
  GI50: 0.064 µM
  TGI: 35.7 µM
SK-OV-3 ovarian
  GI50: 18.2 µM
  TGI: > 100 µM
SNB-19 CNS
  GI50: 53.2 µM
  TGI: > 100 µM
SNB-75 CNS
  GI50: 24.3 µM
  TGI: > 100 µM
SW-620 colon
  GI50: 0.0875 µM
  TGI: 58.6 µM
T-47D breast
  GI50: 53.4 µM
  TGI: > 100 µM
TK-10 renal
  GI50: 0.79 µM
  TGI: 76.7 µM
U251 glioblastoma
  GI50: 2.25 µM
  TGI: > 100 µM
UO-31 renal
  GI50: 2.73 µM
  TGI: > 100 µM

Source: PubChem BioAssay (NCI)
